Measurements from the supplement of paper PMC10627819.

How the values were obtained:
S. pneumoniae D39V [1] = assay: Bliss interaction score (quartile over a dose matrix) (fitness difference); higher = more antagonism (negative = synergy)
How it was run: (§1)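 Fitness was defined as normalised growth: OD595 at the start of stationary phase divided by the plate's robust no-drug mean and capped at 1. Single-drug fitness was inferred from combination measurements. The Bliss score is observed fitness minus the product of the single-drug values, summarised by quartiles across technical, biological and donor/recipient replicates.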

S. aureus DSM 20231 [2] = assay: as above
How it was run: as §1

B. subtilis 168 [3] = assay: as above
How it was run: as §1

S. aureus Newman [4] = assay: as above
How it was run: as §1

S. pneumoniae D39V [5] = assay: fitness (endpoint OD595 vs no drug) (fraction); higher = more growth
How it was run: (§2)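 Bacterial fitness was scored as optical density at the stationary-phase transition relative to the robust mean of no-drug control wells. Scores are capped at 1. The growth data were OD595 readings every 30 min for 14 h at 37 °C, background-subtracted against the first reading, from 384-well plates inoculated at OD595 0.01 in TSB, LB Lennox or CY.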

S. aureus DSM 20231 [6] = assay: as above
How it was run: as §2

B. subtilis 168 [7] = assay: as above
How it was run: as §2

S. aureus Newman [8] = assay: as above
How it was run: as §2
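Throughout, for Bliss interaction score (quartile over a dose matrix): first quartile when negative (synergy) and third quartile when positive (antagonism).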
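Throughout, for fitness (endpoint OD595 vs no drug): OD595 on entry to stationary phase over no-drug wells; at most 1.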

CCC[C@@H]1C[C@@H](C(=O)N[C@@H]([C@H]2O[C@H](SC)[C@H](O)[C@@H](O)[C@H]2O)[C@H](C)Cl)N(C)C1 [Clindamycin] + CN1C2=CC=CC=C2N=C3C1=CC=CC3=O [Pyocyanin]
Conditions	Bliss interaction score
B. subtilis 168 [3]	0.0629
S. aureus DSM 20231 [2]	0.025
S. aureus Newman [4]	-0.141
S. pneumoniae D39V [1]	-0.0665

Conditions	fitness
B. subtilis 168 [7], first compound 0.0625 µg/mL, partner 1.25 µg/mL	0.562
B. subtilis 168 [7], first compound 0.0625 µg/mL, partner 2.5 µg/mL	0.576
B. subtilis 168 [7], first compound 0.0625 µg/mL, partner 5 µg/mL	0.517
B. subtilis 168 [7], first compound 0.125 µg/mL, partner 1.25 µg/mL	0.388
B. subtilis 168 [7], first compound 0.125 µg/mL, partner 2.5 µg/mL	0.389
B. subtilis 168 [7], first compound 0.125 µg/mL, partner 5 µg/mL	0.358
B. subtilis 168 [7], first compound 0.25 µg/mL, partner 1.25 µg/mL	0.34
B. subtilis 168 [7], first compound 0.25 µg/mL, partner 2.5 µg/mL	0.319
B. subtilis 168 [7], first compound 0.25 µg/mL, partner 5 µg/mL	0.314
S. aureus DSM 20231 [6], first compound 0.0625 µg/mL, partner 5 µg/mL	0.0689
S. aureus DSM 20231 [6], first compound 0.125 µg/mL, partner 1.25 µg/mL	0.0414
S. aureus DSM 20231 [6], first compound 0.125 µg/mL, partner 2.5 µg/mL	0.0387
S. aureus DSM 20231 [6], first compound 0.125 µg/mL, partner 5 µg/mL	0.0705
S. aureus Newman [8], first compound 0.0312 µg/mL, partner 1.25 µg/mL	0.602
S. aureus Newman [8], first compound 0.0312 µg/mL, partner 2.5 µg/mL	0.424
S. aureus Newman [8], first compound 0.0312 µg/mL, partner 5 µg/mL	0.155
S. aureus Newman [8], first compound 0.0625 µg/mL, partner 2.5 µg/mL	0.179
S. aureus Newman [8], first compound 0.0625 µg/mL, partner 5 µg/mL	0.0835
S. aureus Newman [8], first compound 0.125 µg/mL, partner 1.25 µg/mL	0.0658
S. aureus Newman [8], first compound 0.125 µg/mL, partner 2.5 µg/mL	0.0591
S. aureus Newman [8], first compound 0.125 µg/mL, partner 5 µg/mL	0.0732
S. pneumoniae D39V [5], first compound 0.0125 µg/mL, partner 0.325 µg/mL	0.775
S. pneumoniae D39V [5], first compound 0.0125 µg/mL, partner 0.65 µg/mL	0.742
S. pneumoniae D39V [5], first compound 0.0125 µg/mL, partner 1.3 µg/mL	0.564
S. pneumoniae D39V [5], first compound 0.025 µg/mL, partner 0.325 µg/mL	0.49
S. pneumoniae D39V [5], first compound 0.025 µg/mL, partner 0.65 µg/mL	0.458
S. pneumoniae D39V [5], first compound 0.025 µg/mL, partner 1.3 µg/mL	0.333
S. pneumoniae D39V [5], first compound 0.05 µg/mL, partner 0.325 µg/mL	0.192
S. pneumoniae D39V [5], first compound 0.05 µg/mL, partner 0.65 µg/mL	0.147
S. pneumoniae D39V [5], first compound 0.05 µg/mL, partner 1.3 µg/mL	0.0814

fitness, one replicate
Conditions	first compound 0.0039 µg/mL	first compound 0.0078 µg/mL	first compound 0.015 µg/mL	first compound 0.0156 µg/mL	first compound 0.03 µg/mL	first compound 0.06 µg/mL
B. subtilis 168 [7], partner 1.25 µg/mL	0.892	0.424	–	0.863	–	–
B. subtilis 168 [7], partner 2.5 µg/mL	0.922	0.451	–	0.802	–	–
B. subtilis 168 [7], partner 5 µg/mL	0.821	0.495	–	0.725	–	–
S. pneumoniae D39V [5], partner 0.325 µg/mL	–	–	0.89	–	0.873	0.554
S. pneumoniae D39V [5], partner 0.65 µg/mL	–	–	0.963	–	0.881	0.689
